In general, logP refers to the decadic logarithm of the partition coefficient of the neutral form, usually between octanol and water. Low values mean a more hydrophilic compound, high ones a more lipophilic compound.

Structures are written as SMILES.

The compound `O=[N+]([O-])c1ccccn1` gave a logP of 0.48.

On to `CCC(=O)Nc1ccnc2cc(Cl)ccc12`, for which the logP amounted to 2.73.

In the case of `CS(=O)(=O)c1cnc2ccccc2n1`, the logP is 0.79.

With `CCOC(=O)c1cccc2cccnc12`, the logP came to 1.83.

Take `CN(C)c1ccncc1`: the logP came to 1.34.

For the compound `CC(=O)Nc1cnc2ccccc2c1`, the logP was determined as 1.92.

The compound `CSc1cnc2ccccc2n1` came in with a logP of 2.79.

`Nc1cnc2ccccc2c1` displayed a logP of 1.63.

Consider `N#Cc1ccc2nccnc2c1`, for which the logP was 1.01.

Compound `CC(=O)c1ccc2ccccc2n1` registered a logP of 2.54.

Compound `O=S(=O)(c1ccccc1)c1ccc2ncccc2c1` gave a lipophilicity (logP) of 2.57.

On to `CN(C)c1ccc2cccnc2c1`, for which the logP was found to be 2.71.

As for `N#Cc1cccnc1`, the logP stood at 0.36.

In the case of `CN(C)c1cccc2cccnc12`, the logP amounted to 2.73.

In turn, `O=[N+]([O-])c1cnc2ccccc2c1` had a logP of 1.97.

`Cc1cccc(C#N)n1` yielded a logP of 0.84.

As for `Cc1cccc2nccnc12`, the logP came to 2.04.

`Clc1ccc2nccnc2c1`: the logP turned out to be 2.1. This logP and that of the compound before are within 0.2 log units of each other.

The compound `Clc1ccc2ccccc2n1` gave a logP of 2.71.

`COC(=O)c1ccncc1` yielded a logP of 0.87.

For `CC(=O)Nc1ccc2ncccc2c1`, the logP amounted to 1.55.

`Cc1ccc([N+](=O)[O-])cn1` yielded a logP of 0.99.

On to `O=COc1ccccc1`, for which the logP turned out to be 1.26.

As to `Nc1ccc2nccnc2c1`, the logP is 0.9.

`Clc1cnc2ccccc2n1` gave a logP of 2.23.

For `Nc1cnc2ccccc2n1`, the logP came to 1.5.

`Cc1cnccn1` yielded a logP of 0.23.

Compound `O=[N+]([O-])c1cccnc1` returned a logP of 0.6.

Take `Nc1cccc2nccnc12`: the logP came to 1.29.

`N#Cc1ccnc2ccccc12` displayed a logP of 1.98.

For `Clc1cccnc1`, the logP is 1.33.

Take `CC(=O)c1ccnc2cc(Cl)ccc12`: the logP stood at 2.62.

With `Nc1ccnc2ccccc12`, the logP came out at 1.63.

In turn, `COc1cnc2ccccc2n1` came in with a logP of 2.31.

Turning to `N#Cc1ccccn1`, the logP turned out to be 0.5.

`CC(=O)c1ccccn1` returned a logP of 0.83.

Consider `CC(=O)Nc1cccc2ncccc12`, for which the logP stood at 0.71.

`CC(=O)Nc1cccnc1` returned a logP of 0.41.

The compound `CCOc1ccc2nccnc2c1` showed a logP of 2.22.

Take `COc1ccc2cccnc2c1`: the logP amounted to 2.37.

In the case of `Cc1cnc2ccccc2n1`, the logP was 1.61.

Compound `CC(=O)c1cccnc1` displayed a logP of 0.43.

On to `Cc1cc(C#N)ccn1`, for which the logP worked out at 0.81.

`Cc1cccc2c1ncc[n+]2[O-]` had a logP of 1.2.

`Cc1cnc(C)cn1` returned a logP of 0.63.

`Brc1ccc2cccnc2c1` returned a lipophilicity (logP) of 2.92.

On to `O=[N+]([O-])c1ccnc2ccccc12`, for which the logP is 2.06.

The compound `Nc1cnccn1` returned a logP of -0.07.

For `N#Cc1ccncc1`, the logP was determined as 0.46.

`Cc1cc2nccnc2cc1C` yielded a logP of 2.29.

Turning to `Cc1ccc2c(c1)N(O)C=CN2O`, the logP was -0.35.

Consider `CCOC(=O)Oc1cccc2cccnc12`, for which the logP was determined as 1.73.

`COc1ccncc1` registered a logP of 1.

The compound `Clc1cccc2nccnc12` came in with a logP of 1.75.

For the origin of these results see the SangsterLogP compilation.
